Test results: patent US9428533B2, “Inhibitors of advanced glycation end products” (NephroGenex, Inc., priority 2006, dated 2016)
pIC50, pKd: −log10 of the molar value.

Assays:
[1] = Redox metal ion binding affinity, visible spectroscopic titration (Cu2+); conditions: visible spectroscopy, physiological pH; read-out: Cu^2+ Kd
From the text: (§1) The AGE inhibition by these types of compounds is believed to occur when the compounds interfere with the role of the required redox metal ions in the oxidative breakdown of the Amadori intermediates to advanced glycation end products (“glycoxidation”). […] These spectral titrations usually involve adding varying amounts of compound to a fixed amount of metal ion in a suitable buffer having low metal ion affinity under physiological pH conditions. In cases of extreme affinity, binding constants were estimated in a competitive assay mode.
(§2) Binding affinity is measured as the dissociation constants Kd (units of concentration). All measurements were done by visible spectroscopy by monitoring the spectrum of the complex formed by each compound near its wavelength maximum, which depends on the metal ion being studied.

[2] = Redox metal ion binding affinity, visible spectroscopic titration (Fe2+); conditions: visible spectroscopy, 480 nm (430 nm for pyridoxamine); read-out: Fe^2+ Kd
From the text: as §1, §2

male mice = conditions: mouse, in vivo, po
Method: A seven day repeat oral gavage study was carried out in male mice in order to detect any obvious signs of clinical toxicity upon administration of BST-605. For comparison, two groups were dosed with BST-4997 and BST-146 (acetyl ester of BST-4997 that is rapidly hydrolyzed to parent BST-4997). Dosing was done daily at 10, 30 and 100 mg/kg/day, and blood draws were taken at the end of study at 1, 2, 4 and 8 h post-dosing.

RNase-Amadori = assay: Post-Amadori AGE/CML ELISA inhibition assay; format: biochemical; conditions: for pIC50: 20 hours at 37° C.
From the text: Using a novel modification of the AGE Inhibition assay, we have determined the post-Amadori AGE inhibition potency for compounds of interest. The experiments were designed to determine the half-maximal inhibitory concentration of compounds (“IC50 values”) for inhibiting the conversion of Amadori intermediates to advanced glycation end products. The post Amadori AGE/CML ELISA assay has been developed to a 384 well format for rapidly testing potential inhibitors prepared from DMSO stocks. Assay signal to background ratios are high, at greater than 20:1. Results in this format for AGE inhibitors agree well with previous data, providing some measure of method validation, making the assay is robust and reliable. Compounds for testing were dissolved at 100 mM or their maximum concentration in 100% DMSO. […] A subset of compounds were not fully soluble in DMSO at concentrations as low as 10 mM. […] When necessary, the activity of compounds was subsequently confirmed in a more thorough repeat test against AGE formation from both RNase Amadori and BSA Amadori. Typically, from DMSO stocks, two stock plates were made. Each well contained 50 μL.
The stock plate #2 was then frozen at −20° C. during preparation. Later, stock plate #2 was removed from the freezer and allowed to thaw for 30 minutes. The compounds in the plate were then mixed repeatedly with a pipettor and diluted 5× into 0.01 N HCl in H2O.
Further dilutions were then carried out spanning two orders of magnitude of concentration. After the compounds were diluted, 10 ul of phosphate buffer was added to each well and mixed to neutralize the solution before protein addition. Next 15 μL of 0.333 mg/mL of RNase-Amadori in phosphate buffer was added from a stock of ribose-RNAse prepared at 10.7 mg/mL. These constitute the AGE reaction mixtures. All AGE reactions proceeded for 20 hours at 37° C. Reactions were then diluted 50 fold into coating buffer by 10× then 5× serial dilution. Coating proceeded at 37° C. for two hours. Final protein was 0.1 μg/well in 384 well plates (2 μg/mL). ELISA was carried out similarly to before using the primary antibody BST-3CK at 1:10000 dilution, and the secondary antibody labeled with DELPHIA Europium GAR at 1:4000 dilution.

[3] = tested on: streptozotocin (STZ)-diabetic rats; assay: Efficacy study in STZ rat model of diabetic neuropathy (nerve conduction velocity); format: in vivo
Method: The STZ rat model has been described previously in WO 2004/019889. Our aim was to ascertain whether BST-605 treatment could correct nerve dysfunction in streptozotocin (STZ)-diabetic rats. Animals were made diabetic for 6 weeks, following which they were treated (n=6) for 2 weeks with BST-605 given in the drinking water at concentrations adjusted to correspond to doses of 0.22, 0.67 and 2.0 mg/kg/day. They were compared to control non-diabetic rats (n=10).
Motor NCV was tested between the sciatic notch and knee for the nerve branch to tibialis anterior muscle, as described in Cameron et al., Q. J. Exp. Physiol. 74:917-926 (1989); and Cameron et al, Exp. Neurol. 92:757-761 (1986).
Saphenous sensory NCV was measured between the groin and ankle.

HepG2 cells = assay: Cell based toxicity assay (MTT); conditions: fixed concentration 1 mM
From the text: Hepatotoxicity is one of the major causes of drug failure in the clinic. HepG2 cells are human cells derived from a liver tumor, and express many of the proteins and detoxification pathways of normal hepatocytes, and so make a reasonable model for initial cellular toxicity testing of candidate compounds. The test is based on the active conversion of 3-[4,5-dimethylthiazol-2-yl]-2,5-dephenyltetrazolium bromide (MTT) by mitochondrial oxidation-reduction reactions into blue formazan crystals. Decreased crystal formation corresponds to decreased cell viability. Azide and chlorpromazine served as a positive controls
10×MTT stock solution (5 mg/ml MTT in 0.9% NaCl)
0.04 N HCl in isopropanol
Compound stocks: 100 mM in 100% DMSO
MTT working solution: diluting 10×MTT stock into culture medium.
Test article in cell culture medium; Final DMSO concentration on the cells varies with the compound concentration (Final concentration of solvents such as DMSO should be kept at or below 1%)
• 1. Aspirate culture medium from HepG2 cells. Replace culture medium with test article dissolved in culture medium. • 2. Incubate in 37° C., 5% CO2 incubator for 16-24 hours. • 3. Aspirate the medium from the cells; replace with an equal volume of 37° C. MTT working solution. • 4. Incubate for 3 hours. • 5. Replace MTT solution with an equal volume of acidified isopropanol. • 6. […] Read the absorbance of the solution at 570 nm. […]

[4] = Drug exposure in plasma of STZ rats at sacrifice; format: in vivo; conditions: lowest two doses
Method: A determination of drug exposure was also made from plasma collected from STZ rats at sacrifice that were dosed at the lowest two doses. […] The detection of parent drugs and metabolites in the STZ rat, as in the mice plasma, confirms that sufficient exposure to the drug occurred in the studies so as to make the toxicity findings and in vivo efficacy reflective of drug administration.

[5] = In vivo plasma concentration and metabolites (HPLC fluorescence, LC-MS/MS); conditions: for metabolites in plasma: mice plasma
Method: The plasma drawn from the mice in the above MTD study was examined by an HPLC fluorescence method for the presence of parent drug at different times as well as for the possible presence of metabolites. […] An HPLC fluorescence method was developed to assay for parent drugs and possible metabolites of each drug. The HPLC method was further adapted for LC-MS/MS study by changing from phosphoric acid to volatile 20 mM ammonium acetate.
Possible structures for the metabolites include the following: […]

[6] = Redox metal ion binding affinity, visible spectroscopic titration (Fe3+); conditions: visible spectroscopy, 480 nm (430 nm for pyridoxamine); read-out: Fe^3+ Kd
From the text: as §1, §2

STZ rats = assay: Tissue staining for carboxymethyllysine (CML) AGEs in nerve vasculature; format: in vivo; conditions: compared to diabetic controls
From the text: This was done by quantitative measurements of tissue staining for carboxymethyllysine (CML) AGEs, using anti-CML antibodies.

[7] = STZ rats, 2 weeks in drinking water, 0.22, 0.67 and 2.0 mg/kg/day

SMILES | pKd [1] | pKd [2] | clinical toxicity in MTD study (male mice) | Potency Relative to BST-4997 (RNase-Amadori) | potency over BST-4997 (RNase-Amadori) [fold] | potency over pyridoxamine (RNase-Amadori) [fold] | pIC50 (RNase-Amadori) | diabetic complications in STZ rat model ([3]; STZ rat model) | restoration of nerve conduction velocity in motor (sciatic nerve) neurons [3, 7] | restoration of nerve conduction velocity in sensory (saphenous) neurons [3, 7] | acute toxicity in HepG2 cell viability (MTT) (HepG2 cells) | drug exposure in plasma [4] | metabolites in plasma [5] | plasma concentration of parent drug versus dose ([5]; mice, plasma 1, 2, 4 and 8 h post-dosing, 10, 30 and 100 mg/kg/day) | pKd [6] | AGE (CML) staining in the nerve vasculature (STZ rats)
Cc1ncc(CN2CCN(C)CC2)c(-c2ncc[nH]2)c1O [BST-605] | 6.89 | 3.14 | no adverse clinical signs or gross examination findings | 6 | 6 | 50 | 4.00 | ameliorates diabetic complications | efficacy at very low concentrations | efficacy at very low concentrations | no acute toxicity | Drug exposure was observed and measured | oxidized and/or undergone glucuronidation | proportional to dose | 3.28 | 
Cc1ncc(CO)c(-c2ncc[nH]2)c1O [BST-4997, reference compound] | 5.95 | 3.16 | significant toxicity at and above 30 mg/kg/day | (1) |  |  | 3.22 |  |  |  | some evidence of toxicity |  | oxidized and/or undergone glucuronidation |  | 3.21 | significant decrease in AGE staining
Cc1ncc(CO)c(CN)c1O [Pyridoxamine, pyridoxamine, reference compound] |  |  |  |  |  |  | 2.30 |  |  |  |  |  |  |  |  | 
